Assay results as given in patent US8633209B2, “Hydrobromide salts of a pyrazolylaminoquinazoline” (Ambit Biosciences Corporation, priority 2010, dated 2014).
Entries after “also recorded” stand apart in the source; their conditions may differ. Read-outs that look alike come from different tables or passages of the source. Values belong to the molecule of their own block, whether it stands above or below them.

Columns and labels:
Format in all cases: physicochemical
[1] = Moisture sorption/desorption (VTI SGA-100 Vapor Sorption Analyzer, 5% to 95% RH); details: for Hygroscopicity (moisture sorption data are consistent with): 5% to 95% RH; for Weight gain upon increase in relative humidity: from ~5% to ~95% RH; for Weight loss upon decrease in relative humidity: from ~95% to ~5% RH
Experimental: Moisture soption/desorption data were collected on a VTI SGA-100 Vapor Sorption Analyzer. Sorption and desorption data were collected over a range of 5% to 95% relative humidity (RH) at 10% RH intervals under a nitrogen purge. Samples were not dried prior to analysis. Equilibrium criteria used for analysis were less than 0.0100% weight change in 5 min, with a maximum equilibration time of 3 hrs if the weight criterion was not met. Data were not corrected for the initial moisture content of the samples. NaCl and PVP were used as calibration standards.

[2] = Heat and vapor stress (vacuum drying, RH jar) with XRPD analysis of the resulting solid form; details: for Result of vacuum drying (Additional Information): temperature and time not stated in Table V; for XRPD Results after vapor stress: ~94% RH vapor stress at RT for ~3 days
Experimental: X-ray powder diffraction analyses were performed using an Inel XRG-3000 diffractometer equipped with a CPS (Curved Position Sensitive) detector with a 2θ range of 120°. Real time data were collected using CuKα radiation at a resolution of 0.03° 2θ. The tube voltage and amperage were set to 40 kV and 30 mA, respectively. The monochromator slit was set at 5 mm by 160 μm. […] Samples were prepared into thin-walled glass capillaries for analysis. Each capillary was mounted onto a goniometer head that was motorized to permit spinning of the capillary during data acquisition. The samples were analyzed for 300 seconds. Instrument calibration was performed using a silicon reference standard.
Samples were placed in a RH jar of specified relative humidity at ambient temperature or elevated temperature for a given amount of time. Samples were placed in heating/vacuum oven at specified temperature for thermal stressing.

[3] = Solubility of the HBr salt of Form A in selected solvents, estimated by solvent addition under ambient conditions
Experimental: The solubility of the HBr salt of Form A in selected solvents was estimated by solvent addition under ambient conditions to provide preliminary information for the polymorph screen. […] This material is sparingly soluble in methanol, methanol/chloroform (1:1), and methanol/tetrahydrofuran (˜14-20 mg/mL).

- Hygroscopicity (moisture sorption data are consistent with) [1]: limited hygroscopic material
- Weight loss upon equilibration at ~5% RH [1]: ~0.2 wt %
- Weight gain upon increase in relative humidity [1]: 0.6 wt %
- Weight loss upon decrease in relative humidity [1]: ~0.6 wt %
- Result of vacuum drying (Additional Information) [2]: remained the same after vacuum
Compound: Cc1cc(Nc2nc(C(O)c3ccc(F)cc3)nc3ccccc23)n[nH]1 (centres unmarked) [Form E, (4-fluorophenyl)(4-(5-methyl-1H-pyrazol-3-ylamino)quinazolin-2-yl)methanol]
- XRPD Results after vacuum drying ([2]; vacuum at ~60° C. for ~2 days): No changes were observed in the XRPD pattern; also recorded: physically stable; also recorded: Form E

- Result of vacuum drying (Additional Information) [2]: primarily consistent with Form A
Compound: Cc1cc(Nc2nc(C(O)c3ccc(F)cc3)nc3ccccc23)n[nH]1 (centres unmarked) [Form B, (4-fluorophenyl)(4-(5-methyl-1H-pyrazol-3-ylamino)quinazolin-2-yl)methanol]
- XRPD Results after vacuum drying ([2]; vacuum at ~60° C. for ~1 day): mixture of Form A with small amount of Form B

- XRPD Results after vapor stress [2]: Disordered A
- XRPD Results after vapor stress ([2]; listed as disordered Form A): remained disordered
Compound: Cc1cc(Nc2nc(C(O)c3ccc(F)cc3)nc3ccccc23)n[nH]1 (centres unmarked) [Disordered Form A, (4-fluorophenyl)(4-(5-methyl-1H-pyrazol-3-ylamino)quinazolin-2-yl)methanol]

- Result of vacuum drying (Additional Information) ([2]; listed as D): Form A.
- XRPD Results after vacuum drying ([2]; vacuum at ~40° C. for ~3 days): consistent with Form A
Compound: Cc1cc(Nc2nc(C(O)c3ccc(F)cc3)nc3ccccc23)n[nH]1 (centres unmarked) [Form D, (4-fluorophenyl)(4-(5-methyl-1H-pyrazol-3-ylamino)quinazolin-2-yl)methanol]

- solubility ([3]; DMF/water (1:1), aqueous with cosolvent or surfactant or cyclodextrin, thermodynamic from solid, solvent DMF/water (1:1), read-out: Solubility): 30000 µg/mL
- solubility ([3]; DMF/water (1:2), aqueous with cosolvent or surfactant or cyclodextrin, thermodynamic from solid, solvent DMF/water (1:2), read-out: Solubility): 4000 µg/mL
- solubility ([3]; DMF/water (1:4), aqueous with cosolvent or surfactant or cyclodextrin, thermodynamic from solid, solvent DMF/water (1:4), read-out: Solubility): < 2000 µg/mL
- solubility ([3]; DMF/water (1:9), aqueous with cosolvent or surfactant or cyclodextrin, thermodynamic from solid, solvent DMF/water (1:9), read-out: Solubility): < 2000 µg/mL
- solubility ([3]; MeOH/THF (1:1), organic solvent or mixture, thermodynamic from solid, solvent MeOH/THF (1:1), read-out: Solubility): 14000 to 20000 µg/mL
- solubility ([3]; MeOH/chloroform (1:1), organic solvent or mixture, thermodynamic from solid, solvent MeOH/chloroform (1:1), read-out: Solubility): 14000 to 20000 µg/mL
- solubility ([3]; acetone, organic solvent or mixture, thermodynamic from solid, solvent Acetone, read-out: Solubility): < 2000 µg/mL
- solubility ([3]; acetonitrile, organic solvent or mixture, thermodynamic from solid, solvent ACN, read-out: Solubility): < 2000 µg/mL
- solubility ([3]; chloroform, organic solvent or mixture, thermodynamic from solid, solvent Chloroform, read-out: Solubility): < 2000 µg/mL
- solubility ([3]; dichloromethane, organic solvent or mixture, thermodynamic from solid, solvent DCM, read-out: Solubility): < 2000 µg/mL
- solubility ([3]; dimethylformamide, organic solvent or mixture, thermodynamic from solid, solvent DMF, read-out: Solubility): > 114000 µg/mL
- solubility ([3]; ethanol, organic solvent or mixture, thermodynamic from solid, solvent EtOH, read-out: Solubility): 3000 to 7000 µg/mL
- solubility ([3]; ethyl acetate, organic solvent or mixture, thermodynamic from solid, solvent EtOAc, read-out: Solubility): < 2000 µg/mL
- solubility ([3]; hexafluoroisopropanol, organic solvent or mixture, thermodynamic from solid, solvent HFIPA (hexafluoroisopropanol), read-out: Solubility): > 128000 µg/mL
- solubility ([3]; isopropyl alcohol, organic solvent or mixture, thermodynamic from solid, solvent IPA, read-out: Solubility): < 2000 µg/mL
- solubility ([3]; methanol, organic solvent or mixture, thermodynamic from solid, solvent MeOH, read-out: Solubility): 14000 to 20000 µg/mL
- solubility ([3]; nitromethane, organic solvent or mixture, thermodynamic from solid, solvent Nitromethane, read-out: Solubility): < 2000 µg/mL
- solubility ([3]; solvent ACN): <2000 µg/mL
- solubility ([3]; solvent Acetone): <2000 µg/mL
- solubility ([3]; solvent Chloroform): <2000 µg/mL
- solubility ([3]; solvent DCM): <2000 µg/mL
- solubility ([3]; solvent DMF): >114000 µg/mL
- solubility ([3]; solvent DMF/water (1:4)): <2000 µg/mL
- solubility ([3]; solvent DMF/water (1:9)): <2000 µg/mL
- solubility ([3]; solvent EtOAc): <2000 µg/mL
- solubility ([3]; solvent EtOH): 3000 µg/mL
- solubility ([3]; solvent HFIPA (hexafluoroisopropanol)): >128000 µg/mL
- solubility ([3]; solvent IPA): <2000 µg/mL
- solubility ([3]; solvent MeOH): 18000 µg/mL
- solubility ([3]; solvent MeOH/THF (1:1)): 14000 µg/mL
- solubility ([3]; solvent MeOH/chloroform (1:1)): 16000 µg/mL
- solubility ([3]; solvent Nitromethane): <2000 µg/mL
- solubility ([3]; solvent THF): <2000 µg/mL
- solubility ([3]; solvent Toluene): <2000 µg/mL
- solubility ([3]; solvent Water): <2000 µg/mL
- solubility ([3]; t-butanol/water (3:1), organic solvent or mixture, thermodynamic from solid, solvent t-Butanol/water (3:1), read-out: Solubility): 6000 µg/mL
- solubility ([3]; tetrahydrofuran, organic solvent or mixture, thermodynamic from solid, solvent THF, read-out: Solubility): < 2000 µg/mL
- solubility ([3]; toluene, organic solvent or mixture, thermodynamic from solid, solvent Toluene, read-out: Solubility): < 2000 µg/mL
- solubility ([3]; water, thermodynamic from solid, solvent Water, read-out: Solubility): < 2000 µg/mL
- Hygroscopicity (moisture sorption data are consistent with) [1]: limited hygroscopic material
- Weight loss upon equilibration at ~5% RH [1]: ~0.3 wt %
- Weight gain upon increase in relative humidity [1]: 1.0 wt %
- Weight loss upon decrease in relative humidity [1]: ~1.0 wt %
Compound: Cc1cc(Nc2nc(C(O)c3ccc(F)cc3)nc3ccccc23)n[nH]1 (centres unmarked) [Form A, (4-fluorophenyl)(4-(5-methyl-1H-pyrazol-3-ylamino)quinazolin-2-yl)methanol]

- Result of vacuum drying (Additional Information) ([2]; listed as C): Forms A and C.
- XRPD Results after vacuum drying ([2]; vacuum at ~80° C. for ~1 day): mixture of Forms A and C
Compound: Cc1cc(Nc2nc(C(O)c3ccc(F)cc3)nc3ccccc23)n[nH]1 (centres unmarked) [Form C, (4-fluorophenyl)(4-(5-methyl-1H-pyrazol-3-ylamino)quinazolin-2-yl)methanol]

- XRPD Results after vacuum drying ([2]; vacuum at ~60° C. for ~1 day): Form A +
Compound: Cc1cc(Nc2nc(C(O)c3ccc(F)cc3)nc3ccccc23)n[nH]1 (centres unmarked) [Forms A + B, (4-fluorophenyl)(4-(5-methyl-1H-pyrazol-3-ylamino)quinazolin-2-yl)methanol]
- XRPD Results after vacuum drying ([2]; vacuum at ~60° C. for ~2 days, listed as Forms A and B): primarily consistent with Form A with a minor amount of Form B
